From patent US20020111360A1, “Quinazoline formulations and therapeutic use thereof” (PARKER HUGHES INSTITUTE, priority 1999, published 2002) come the findings set out here.

SMILES strings stand for the structures. Structures can show the parent of a compound that is named as a salt.

For orientation: melting point means the temperature of the solid-liquid transition. With `COc1cc2ncnc(Nc3cc(Cl)ccc3O)c2cc1OC` (as salt: salt) [P-93, 4-(3′-Chlooro-6′-hydroxylphenyl)amino-6,7-dimethoxyquinazoline], the melting point is 295 °C (dec.).

As for `COc1cc2ncnc(Nc3ccc(C)c(Br)c3)c2cc1OC` (as salt: salt) [P-111, 4-(3′-Bromo-4′-methylphenyl)-amino-6,7-dimethoxyquinazoline], the melting point lay in the range of 225 to 228 °C. Then `COc1cc2ncnc(Nc3c(F)c(F)c(Br)c(F)c3F)c2cc1OC` (as salt: salt) [P-144, 4-(2′,3′,5′,6′-Tetrafluoro-4′-bromolphenyl)-amino-6,7-dime-thoxyquinazoline], with 180 to 182 °C.

As to `COc1cc2ncnc(Nc3ccc4c(c3)Cc3cc(Br)ccc3-4)c2cc1OC` (as salt: salt) [P-160, 4-[(7′-Bromofluorene)-2]-amino-6,7-dimethoxyquinazoline], the melting point fell in the range of 254 to 256 °C. Then `COc1cc2ncnc(Nc3ccc(Br)cc3CO)c2cc1OC` (as salt: salt) [P-190, 4-(4′-Bromo-6′-hydroxymethylphenyl)-amino-6,7-dimethoxyquinazoline], with 222 to 223 °C; and `COc1cc2ncnc(Nc3cc(Br)c(C)cc3Br)c2cc1OC` (as salt: salt) [P-211, 4-(2′,5′-Dibromo-4′-methylphenyl)-amino-6,7-dimethoxyquinazoline], with 282 to 284 °C; and `COc1cc2ncnc(Nc3ccccc3Br)c2cc1OC` (as salt: salt) [P-261, 4-(2′-Bromophenyl)-amino-6,7-dimethoxyquinazoline], with 241 to 243 °C. The result for `COc1cc2ncnc(Nc3ccccc3I)c2cc1OC` (as salt: salt) [P-270, 4-(2′-Iodophenyl)-amino-6,7-dimethoxyquinazoline] reads 225 to 230 °C; that for `COc1cc2ncnc(Nc3c(O)ccc4ccccc34)c2cc1OC` (as salt: salt) [P-275, 4-(2′-Naphthol-1)-amino-6,7-dimethoxyquinazoline], 218 to 220 °C. Then `COc1cc2ncnc(Nc3ccc(O)cc3Cl)c2cc1OC` (as salt: salt) [P-278, 4-(4′-Hydroxyl-2′-chlorophenyl)-amino-6,7-dimethoxy-quinazoline], with 245 to 247 °C. Turning to `COc1cc2ncnc(Nc3cccc4c(O)cccc34)c2cc1OC` (as salt: salt) [P-293, 4-(1′-Hydroxy-naphthyl-5′)-amino-6,70-dimethoxyquina-zoline], the melting point lay within 204 to 205 °C. Then `COc1cc2ncnc(Nc3cc(I)c(O)c(I)c3)c2cc1OC` (as salt: salt) [P-294, 4-(4′-Hydroxy-3,5-diiodophenyl)-amino-6,7-dimethoxy-quinazoline], with 259 to 260 °C; and `COc1cc2ncnc(Nc3ccc(O)c(I)c3)c2cc1OC` (as salt: salt) [P-299, 4-(4′-Hydroxy-3′-iodophenyl)-amino-6,7-dimethoxyquinazoline], with 248 to 250 °C. The result for `COc1cc2ncnc(Nc3ccc(I)cc3)c2cc1OC` (as salt: salt) [P-300, 4-(4′-Iodophenyl)-amino-6,7-dimethoxyquinazoline] reads 240 to 242 °C; that for `COc1cc2ncnc(Nc3ccc(C(c4ccc(N)cc4)(C(F)(F)F)C(F)(F)F)cc3)c2cc1OC` (as salt: salt) [P-352, 4-{4′-[2″-(4″′-Aminophenyl)-hexafluoropropyl]phenyl}-amino-6,7-dimethoxyquinazoline], 280 to 282 °C; that for `COc1cc2ncnc(Nc3ccccc3OC(F)(F)F)c2cc1OC` (as salt: salt) [P-365, 4-(2′-Trifluoromethoxylphenyl)-amino-6,7-dimethoxyquinazoline], 235 to 237 °C. Then `COc1cc2ncnc(Nc3cc(C(F)(F)F)cc(C(F)(F)F)c3)c2cc1OC` (as salt: salt) [P-366, 4-(3′,5′-Ditrifluoromethylphenyl)-amno-6,7-dimethoxyquinazoline], with 270 to 272 °C. As for `COc1cc2ncnc(Nc3ccc(O)c(F)c3)c2cc1OC` (as salt: salt) [P-369, 4-(4′Hydroxyl-3′-fluorophenyl)-amino-6,7-dimethoxyquinazoline], the melting point lay within 268 to 270 °C.

In the case of `COc1cc2ncnc(Nc3cc(F)c(O)c(F)c3)c2cc1OC` (as salt: salt) [P-408, 4-(4′-Hydroxyl-3′,5′-difluorophenyl)-amino-6,7-dimethoxy-quinazoline], the melting point lay in the range of 228 to 230 °C. Then `COc1cc2ncnc(Nc3ccc(Cl)c4ccccc34)c2cc1OC` (as salt: salt) [P-415, 4-(4′-Chloronaphthy-1′)-amino-6,7-dimethoxyquinazoline], with 245 to 248 °C. Then `COc1cc2ncnc(Nc3ccc(Br)cc3C(=O)O)c2cc1OC` [P-88, 4-(4′-Bromo-2′-caboxylphenyl)-amino-6,7-dimethoxyquinazoline], with over 300 °C; and `COc1cc2ncnc(Nc3ncccc3O)c2cc1OC` [P-150, 4-[(3′-Hydroxylpyridine)-2′]-amino-6,7-dimethoxyquinazoline], with 185 to 187 °C.

The compound `COc1cc2ncnc(Nc3ccc(O)c(C(=O)O)c3)c2cc1OC` [P-182, 4-(4′-Hydroxyl-3′-Carboxyphenyl)-amino-6,7-dimethoxyquinazoline] showed a melting point of over 300 °C.

Regarding `COc1cc2ncnc(Nc3cc(Cl)c(O)c(Cl)c3)c2cc1OC` [P-189, 4-(4′-Hydroxyl-3′,5′-dichlorophenyl)amino-6,7-dimethoxyquinazoline], the melting point was 293 to 295 °C. With `COc1cc2ncnc(Nc3ccccc3CO)c2cc1OC` [P-191, 4-(6′-Hydroxymethylphenyl)-amino-6,7-dimethosyquinazoline], the melting point lay in the range of 215 to 218 °C. The result for `COc1cc2ncnc(Nc3ccc(O)cc3O)c2cc1OC` [P-192, 4-(2′,4′-Dihydroxyphenyl)-amino-6,7-dimethoxyquinazoline] reads 240 °C (dec.); that for `COc1cc2ncnc(Nc3ccc(C)c(Br)c3Br)c2cc1OC` [P-210, 4-(2′,3′-Dibromo-4′-methylphenyl)-amino-6,7-dimethoxyquinazoline], 233 to 236 °C. The result for `COc1cc2ncnc(Nc3cc(Br)c(C)c(Br)c3)c2cc1OC` [P-212, 4-(3′,5′-Dibromo-4′-methylphenyl)-amino-6,7-dimethoxyquinazoline] reads 275 to 279 °C. With `COc1cc2ncnc(Nc3cnc(O)nc3O)c2cc1OC` [P-215, 4-(2′,4′-Dihydroxyl-1′,3′-diazine-5′)-amino-6,7-dime-thoxyquinazoline], the melting point was over 300 °C. Regarding `COc1cc2ncnc(Nc3c(Br)cc(Br)cc3Br)c2cc1OC` [P-222, 4-(2′,4′,6′-Tribromophenyl)amino-6,7-dimethoxyquinazoline], the melting point lay in the range of 250 to 255 °C. `COc1cc2ncnc(Nc3ccc(C(F)(F)F)cc3)c2cc1OC` [P-223, 4-(4′-Trifluoromethylphenyl)-amino-6,7-dimethoxyquinazoline] registered a melting point of 243 to 245 °C. Then `COc1cc2ncnc(Nc3ccccc3C(F)(F)F)c2cc1OC` [P-228, 4-(2′-Trifluoromethylphenyl)-amino-6,7-dimethoxyquinazoline], with 242 to 245 °C.
